Test results from the supplement of paper PMC10307832.

Experiments:
Assay in all cases: relative viability (nuclei count vs DMSO), 5 days (fraction); higher = more cells survive
[1] = system: A-427
Outline: (§1)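 Nuclei were stained with Hoechst during a one-step fixation (final 0.05% Triton X-100, 1% formaldehyde, 1 ug/ml Hoechst) carried out 5 days after dosing, then counted on 4× images. The cells, lung cancer lines in 1536-well plates, had been dosed by pin tool the day after seeding with one drug alone or a fixed anchor-drug dose plus five library-drug doses (not always all listed) in √10 steps. Relative viability is the nuclei count in treated wells divided by that in vehicle wells, and each value is the median of duplicate plates.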

[2] = system: CAL-12T
Outline: as §1

[3] = system: COR-L 105
Outline: as §1

[4] = system: EMC-BAC-2
Outline: as §1

[5] = system: HARA
Outline: as §1

[6] = system: HCC-366
Outline: as §1

[7] = system: HCC-827
Outline: as §1

[8] = system: HOP-62
Outline: as §1

[9] = system: NCI-H1395
Outline: as §1

[10] = system: NCI-H1437
Outline: as §1

[11] = system: NCI-H1755
Outline: as §1

[12] = system: NCI-H1792
Outline: as §1

[13] = system: NCI-H1915
Outline: as §1

[14] = system: NCI-H2009
Outline: as §1

[15] = system: NCI-H2228
Outline: as §1

[16] = system: NCI-H23
Outline: as §1

[17] = system: NCI-H460
Outline: as §1

[18] = system: NCI-H727
Outline: as §1

[19] = system: SK-LU-1
Outline: as §1

[20] = system: SW 1573
Outline: as §1

Which relative viability ([1]; first compound 0.005 µM) does the source give for `COc1cc2nccc(Oc3ccc(NC(=O)Nc4cc(C)on4)c(Cl)c3)c2cc1OC` [Tivozanib] + CS(=O)(=O)CCNCc1ccc(-c2ccc3ncnc(Nc4ccc(OCc5cccc(F)c5)c(Cl)c4)c3c2)o1 [Lapatinib] (partner 2 µM) here?
Its relative viability is 1.02.

What about the relative viability ([1]; first compound 0.01581 µM) of the same compound?
The relative viability was 1.04.

What about the relative viability ([1]; first compound 0.05 µM) of the same compound?
Its relative viability is 1.04.

What about the relative viability ([1]; first compound 0.1581 µM) of the same compound?
The relative viability was 0.96.

And the relative viability ([1]; first compound 0.5 µM)?
Its relative viability is 1.06.

What about the relative viability ([2]; first compound 0.005 µM) of the same compound?
Its relative viability is 0.563.

What about the relative viability ([2]; first compound 0.01581 µM) of the same compound?
Its relative viability is 0.752.

And the relative viability ([2]; first compound 0.05 µM)?
The relative viability was 0.666.

What about the relative viability ([2]; first compound 0.5 µM) of the same compound?
Its relative viability is 0.784.

What about the relative viability ([3]; first compound 0.01581 µM) of the same compound?
The relative viability was 0.317.

And the relative viability ([3]; first compound 0.05 µM)?
Its relative viability is 0.368.

What about the relative viability ([3]; first compound 0.1581 µM) of the same compound?
Its relative viability is 0.322.

What about the relative viability ([3]; first compound 0.5 µM) of the same compound?
Its relative viability is 0.339.

What about the relative viability ([4]; first compound 0.005 µM) of the same compound?
Its relative viability is 0.954.

And the relative viability ([4]; first compound 0.01581 µM)?
Its relative viability is 0.875.

What about the relative viability ([4]; first compound 0.05 µM) of the same compound?
Its relative viability is 0.871.

What about the relative viability ([4]; first compound 0.1581 µM) of the same compound?
The relative viability was 0.675.

And the relative viability ([4]; first compound 0.5 µM)?
The relative viability was 0.908.

And the relative viability ([5]; first compound 0.005 µM)?
Its relative viability is 0.615.

What about the relative viability ([5]; first compound 0.01581 µM) of the same compound?
Its relative viability is 0.724.

And the relative viability ([5]; first compound 0.05 µM)?
The relative viability was 0.79.

What about the relative viability ([5]; first compound 0.1581 µM) of the same compound?
The relative viability was 0.641.

What about the relative viability ([5]; first compound 0.5 µM) of the same compound?
Its relative viability is 0.831.

What about the relative viability ([6]; first compound 0.005 µM) of the same compound?
Its relative viability is 0.991.

And the relative viability ([6]; first compound 0.01581 µM)?
The relative viability was 1.08.

And the relative viability ([6]; first compound 0.05 µM)?
Its relative viability is 1.12.

And the relative viability ([6]; first compound 0.1581 µM)?
Its relative viability is 1.03.

And the relative viability ([6]; first compound 0.5 µM)?
Its relative viability is 0.976.

And the relative viability ([7]; first compound 0.005 µM)?
Its relative viability is 0.244.

And the relative viability ([7]; first compound 0.01581 µM)?
The relative viability was 0.181.

What about the relative viability ([7]; first compound 0.05 µM) of the same compound?
The relative viability was 0.204.

What about the relative viability ([7]; first compound 0.1581 µM) of the same compound?
Its relative viability is 0.233.

And the relative viability ([7]; first compound 0.5 µM)?
The relative viability was 0.842.

What about the relative viability ([8]; first compound 0.005 µM) of the same compound?
Its relative viability is 0.932.

What about the relative viability ([8]; first compound 0.01581 µM) of the same compound?
Its relative viability is 0.944.

What about the relative viability ([8]; first compound 0.05 µM) of the same compound?
Its relative viability is 0.994.

And the relative viability ([8]; first compound 0.1581 µM)?
Its relative viability is 0.787.

What about the relative viability ([8]; first compound 0.5 µM) of the same compound?
Its relative viability is 0.87.

And the relative viability ([9]; first compound 0.005 µM)?
Its relative viability is 0.939.

What about the relative viability ([9]; first compound 0.01581 µM) of the same compound?
Its relative viability is 1.11.

And the relative viability ([9]; first compound 0.05 µM)?
The relative viability was 1.02.

What about the relative viability ([9]; first compound 0.1581 µM) of the same compound?
Its relative viability is 0.863.

And the relative viability ([9]; first compound 0.5 µM)?
The relative viability was 0.778.

And the relative viability ([10]; first compound 0.005 µM)?
The relative viability was 0.771.

And the relative viability ([10]; first compound 0.01581 µM)?
Its relative viability is 0.8.

And the relative viability ([10]; first compound 0.05 µM)?
Its relative viability is 0.777.

What about the relative viability ([10]; first compound 0.1581 µM) of the same compound?
Its relative viability is 0.824.

And the relative viability ([10]; first compound 0.5 µM)?
The relative viability was 0.708.

And the relative viability ([11]; first compound 0.005 µM)?
The relative viability was 0.945.

And the relative viability ([11]; first compound 0.01581 µM)?
Its relative viability is 0.991.

And the relative viability ([11]; first compound 0.05 µM)?
The relative viability was 1.03.

What about the relative viability ([11]; first compound 0.1581 µM) of the same compound?
The relative viability was 1.02.

What about the relative viability ([11]; first compound 0.5 µM) of the same compound?
Its relative viability is 1.02.

What about the relative viability ([12]; first compound 0.005 µM) of the same compound?
Its relative viability is 0.901.

And the relative viability ([12]; first compound 0.01581 µM)?
The relative viability was 0.925.

What about the relative viability ([12]; first compound 0.05 µM) of the same compound?
Its relative viability is 0.922.

What about the relative viability ([12]; first compound 0.1581 µM) of the same compound?
Its relative viability is 0.841.

What about the relative viability ([12]; first compound 0.5 µM) of the same compound?
The relative viability was 1.01.

What about the relative viability ([13]; first compound 0.005 µM) of the same compound?
Its relative viability is 0.992.

What about the relative viability ([13]; first compound 0.01581 µM) of the same compound?
Its relative viability is 0.928.

What about the relative viability ([13]; first compound 0.05 µM) of the same compound?
The relative viability was 0.946.

And the relative viability ([13]; first compound 0.1581 µM)?
Its relative viability is 0.965.

What about the relative viability ([13]; first compound 0.5 µM) of the same compound?
The relative viability was 0.882.

And the relative viability ([14]; first compound 0.005 µM)?
Its relative viability is 0.88.

And the relative viability ([14]; first compound 0.01581 µM)?
Its relative viability is 1.1.

And the relative viability ([14]; first compound 0.05 µM)?
Its relative viability is 0.937.

What about the relative viability ([14]; first compound 0.1581 µM) of the same compound?
Its relative viability is 0.896.

And the relative viability ([14]; first compound 0.5 µM)?
Its relative viability is 0.909.

And the relative viability ([15]; first compound 0.005 µM)?
Its relative viability is 1.07.

What about the relative viability ([15]; first compound 0.01581 µM) of the same compound?
Its relative viability is 1.1.

What about the relative viability ([15]; first compound 0.05 µM) of the same compound?
The relative viability was 1.07.

What about the relative viability ([15]; first compound 0.1581 µM) of the same compound?
Its relative viability is 1.03.

What about the relative viability ([15]; first compound 0.5 µM) of the same compound?
Its relative viability is 0.948.

What about the relative viability ([16]; first compound 0.005 µM) of the same compound?
Its relative viability is 1.1.

What about the relative viability ([16]; first compound 0.01581 µM) of the same compound?
The relative viability was 1.37.

And the relative viability ([16]; first compound 0.05 µM)?
The relative viability was 1.09.

And the relative viability ([16]; first compound 0.1581 µM)?
Its relative viability is 0.858.

What about the relative viability ([16]; first compound 0.5 µM) of the same compound?
Its relative viability is 0.942.

And the relative viability ([17]; first compound 0.005 µM)?
Its relative viability is 0.889.

What about the relative viability ([17]; first compound 0.01581 µM) of the same compound?
Its relative viability is 1.

And the relative viability ([17]; first compound 0.05 µM)?
The relative viability was 0.979.

And the relative viability ([17]; first compound 0.1581 µM)?
The relative viability was 1.12.

What about the relative viability ([17]; first compound 0.5 µM) of the same compound?
The relative viability was 0.948.

And the relative viability ([18]; first compound 0.005 µM)?
Its relative viability is 0.676.

And the relative viability ([18]; first compound 0.01581 µM)?
The relative viability was 0.901.

What about the relative viability ([18]; first compound 0.05 µM) of the same compound?
Its relative viability is 0.957.

What about the relative viability ([18]; first compound 0.5 µM) of the same compound?
The relative viability was 0.787.

What about the relative viability ([19]; first compound 0.005 µM) of the same compound?
Its relative viability is 0.827.

What about the relative viability ([19]; first compound 0.01581 µM) of the same compound?
Its relative viability is 0.809.

And the relative viability ([19]; first compound 0.05 µM)?
The relative viability was 0.895.

What about the relative viability ([19]; first compound 0.1581 µM) of the same compound?
The relative viability was 0.704.

And the relative viability ([19]; first compound 0.5 µM)?
Its relative viability is 0.738.

What about the relative viability ([20]; first compound 0.005 µM) of the same compound?
Its relative viability is 0.909.

And the relative viability ([20]; first compound 0.01581 µM)?
The relative viability was 1.25.

What about the relative viability ([20]; first compound 0.05 µM) of the same compound?
The relative viability was 1.16.

And the relative viability ([20]; first compound 0.1581 µM)?
Its relative viability is 0.856.

What about the relative viability ([20]; first compound 0.5 µM) of the same compound?
The relative viability was 1.08.
